# Activity calls are given as the source filed them. The rule behind the calls is not given here.
# Assays:
# MIA PaCa-2 [1] = test: Antitumor activity against human MIA PaCa-2 cells xenografted in NOD/SCID mouse assessed as tumor growth delay at 20 mg/kg, ip administered five times a week starting from day 10 to 44 post first dose and measured from day 17; type: functional, organism-based; settings: time 44.0 day
# MIA PaCa-2 [2] = test: Induction of autophagy in human MIA PaCa-2 cells assessed as accumulation of GABARAPL1 marker gene expression at upto 2 uM incubated for 72 hrs by Western blot analysis; type: functional, cell-based
# [3] = Upregulation of HERPUD1 gene expression in human MIA PaCa-2 cells assessed as fold change in HERPUD1 expression at 1 uM incubated for 24 hrs by Bru-seq analysis relative to control; type: functional
# [4] = Upregulation of MAP1LC3B gene expression in human MIA PaCa-2 cells assessed as fold change in MAP1LC3B expression at 1 uM incubated for 24 hrs by Bru-seq analysis relative to control; type: functional
# MIA PaCa-2 [5] = test: Downregulation of chromosomal proteins expression in human MIA PaCa-2 cells; type: functional, cell-based
# [6] = Downregulation of H2AFX gene expression in human MIA PaCa-2 cells assessed as fold change in H2AFX expression at 1 uM incubated for 24 hrs by Bru-seq analysis relative to control; type: functional
# SNU-398 = test: Antiproliferative activity against human SNU-398 cells assessed as inhibition of cell growth incubated for 72 hrs by MTT assay; type: functional, cell-based; settings: SNU-398, 72 h
# MIA PaCa-2 [7] = test: Induction of cell cycle arrest in human MIA PaCa-2 cells assessed as accumulation of cells at S phase at 0.1 uM incubated for 24 hrs by RNase/propidium iodide staining based flow cytometry analysis (Rvb =27.6 %); type: functional
# MIA PaCa-2 [8] = test: Synergistic autophagy activity in human MIA PaCa-2 cells assessed as inhibition of colony formation at 0.001 to 0.1 uM incubated for 7 days in presence of autophagy inhibitor chloroquine by crystal violet staining based assay; type: functional, cell-based; settings: dose 0.001-0.1 µM, time 7.0 day
# [9] = Toxicity in NOD/SCID mouse xenografted with human MIA PaCa- 2 cells assessed as morphological changes in kidney at 10 to 20 mg/kg, ip administered five times a week for 44 days by H and E staining based inverted microscopic analysis; type: organism-based; settings: in vivo, 1056 h, dose 10-20 mg/kg, time 44 day
# [10] = Downregulation of P1F1 gene expression in human MIA PaCa-2 cells assessed as fold change in P1F1 expression at 1 uM incubated for 24 hrs by Bru-seq analysis relative to control; type: functional
# MIA PaCa-2 [11] = test: Induction of cell cycle arrest in human MIA PaCa-2 cells assessed as accumulation of cells in G0/G1 phase at 0.5 uM incubated for 24 hrs by RNase/propidium iodide staining based flow cytometry analysis (reference value: 64.3%); type: functional
# [12] = Upregulation of HMOX1 gene expression in human MIA PaCa-2 cells assessed as fold change in HMOX1 expression at 1 uM incubated for 24 hrs by Bru-seq analysis relative to control; type: functional
# [13] = Upregulation of SESN2 gene expression in human MIA PaCa-2 cells assessed as fold change in SESN2 expression at 1 uM incubated for 24 hrs by Bru-seq analysis relative to control; type: functional
# MIA PaCa-2 [14] = test: Induction of UPR pathway in human MIA PaCa-2 cells by ingenuity pathway analysis; type: functional, cell-based
# [15] = Toxicity in NOD/SCID mouse xenografted with human MIA PaCa- 2 cells assessed as morphological changes in spleen at 10 to 20 mg/kg, ip administered five times a week for 44 days by H and E staining based inverted microscopic analysis; type: organism-based; settings: in vivo, 1056 h, dose 10-20 mg/kg, time 44 day
# HCT-116 = test: Antiproliferative activity against human HCT-116 cells assessed as inhibition of cell growth incubated for 72 hrs by MTT assay; type: functional, cell-based; settings: HCT-116, 72 h
# [16] = Downregulation of CCDC85C gene expression in human MIA PaCa-2 cells assessed as fold change in CCDC85C expression at 1 uM incubated for 24 hrs by Bru-seq analysis relative to control; type: functional
# [17] = Upregulation of SAT1 gene expression in human MIA PaCa-2 cells assessed as fold change in SAT1 expression at 1 uM incubated for 24 hrs by Bru-seq analysis relative to control; type: functional
# MIA PaCa-2 [18] = test: Downregulation of E2F target gene expression in human MIA PaCa-2 cells by gene set enrichment analysis; type: functional, cell-based
# [19] = Upregulation of TRIB3 gene expression in human MIA PaCa-2 cells assessed as fold change in TRIB3 expression at 1 uM incubated for 24 hrs by Bru-seq analysis relative to control; type: functional
# MIA PaCa-2 [20] = test: Antiproliferative activity against human MIA PaCa-2 cells assessed as inhibition of cell growth at 0.1 to 10 uM incubated for 1 to 72 hrs followed by compound washout with PBS and replacement with fresh culture medium and measured after 72 hrs by MTT assay; type: functional, cell-based; settings: dose 0.1-10 µM, time 1-72 hrs, TDE = time-dependent effect
# MIA PaCa-2 [21] = test: Induction of apoptosis in human MIA PaCa-2 cells assessed as early apoptotic cells at 0.1 uM incubated for 48 hrs by Annexin V-FITC/PI staining based flow cytometry analysis (reference value: 1.8%); type: functional
# MIA PaCa-2 [22] = test: Induction of apoptosis in human MIA PaCa-2 cells assessed as necrotic cells at 0.5 uM incubated for 48 hrs by Annexin V-FITC/PI staining based flow cytometry analysis (reference value: 1.07%); type: functional
# MIA PaCa-2 [23] = test: Induction of apoptosis in human MIA PaCa-2 cells assessed as necrotic cells at 0.1 uM incubated for 48 hrs by Annexin V-FITC/PI staining based flow cytometry analysis (reference value: 1.07%); type: functional
# [24] = Downregulation of RGS3 gene expression in human MIA PaCa-2 cells assessed as fold change in RGS3 expression at 1 uM incubated for 24 hrs by Bru-seq analysis relative to control; type: functional
# SNU-449 = test: Antiproliferative activity against human SNU-449 cells assessed as inhibition of cell growth incubated for 72 hrs by MTT assay; type: functional, cell-based; settings: SNU-449, 72 h
# MIA PaCa-2 [25] = test: Induction of apoptosis in human MIA PaCa-2 cells assessed as necrotic cells at 0.1 uM incubated for 24 hrs by Annexin V-FITC/PI staining based flow cytometry analysis (reference value: 2.7%); type: functional
# MIA PaCa-2 [26] = test: Induction of autophagy in human MIA PaCa-2 cells assessed as accumulation of LC3B marker gene expression at upto 2 uM incubated for 72 hrs by Western blot analysis; type: functional, cell-based
# MIA PaCa-2 [27] = test: Upregulation of stress response gene expression in human MIA PaCa-2 cells; type: functional, cell-based
# [28] = Upregulation of SERPINB8 gene expression in human MIA PaCa-2 cells assessed as fold change in SERPINB8 expression at 1 uM incubated for 24 hrs by Bru-seq analysis relative to control; type: functional
# [29] = Cytotoxicity against HEK293 cells assessed as inhibition of cell growth incubated for 72 hrs by MTT assay; type: toxicity, cell-based; settings: human
# MIA PaCa-2 [30] = test: Induction of apoptosis in human MIA PaCa-2 cells assessed as late apoptotic cells at 0.5 uM incubated for 48 hrs by Annexin V-FITC/PI staining based flow cytometry analysis (reference value: 0.8%); type: functional
structure (smiles),measurement,setting,value
O=C(Nc1cccc2cccnc12)c1cnccn1,Activity,MIA PaCa-2 [1],Active
same,Activity,MIA PaCa-2 [2],Active
same,fold change (FC),[3],9.8
same,fold change (FC),[4],6.8
same,Activity,MIA PaCa-2 [5],Active
same,fold change (FC),[6],0.35
same,IC50,SNU-398,1900 nM
same,Activity,MIA PaCa-2 [7],33.2%
same,Activity,MIA PaCa-2 [8],Active
same,Activity,[9],Non-Toxic
same,fold change (FC),[10],0.28
same,Activity,MIA PaCa-2 [11],44.5%
same,fold change (FC),[12],13
same,fold change (FC),[13],5.4
same,Activity,MIA PaCa-2 [14],Active
same,Activity,[15],Non-Toxic
same,IC50,HCT-116,100 nM
same,fold change (FC),[16],0.42
same,fold change (FC),[17],7
same,Activity,MIA PaCa-2 [18],Active
same,fold change (FC),[19],14.5
same,Activity,MIA PaCa-2 [20],Tde
same,Activity,MIA PaCa-2 [21],5.5%
same,Activity,MIA PaCa-2 [22],1.2%
same,Activity,MIA PaCa-2 [23],1.1%
same,fold change (FC),[24],0.46
same,IC50,SNU-449,400 nM
same,Activity,MIA PaCa-2 [25],2.2%
same,Activity,MIA PaCa-2 [26],Active
same,Activity,MIA PaCa-2 [27],Active
same,fold change (FC),[28],5.3
same,IC50 at 72 h,[29],150 nM
same,Activity,MIA PaCa-2 [30],1.8%
